From the NIST ThermoML archive (doi:10.1016/j.jct.2012.09.026)
Numbers after ± are expanded uncertainties.

How the values were obtained:
[1] = Liquid, Vibrating tube method
[2] = xn = mol fraction of the nth substance listed; conditions: Liquid, x2 = 0

O [water]
mass density [kg/m3], [1]
Conditions | 101.3 kPa | 10000 kPa | 25000 kPa | 50000 kPa | 75000 kPa | 100000 kPa
278.15 K | 999.96 ± 1 | 1004.77 ± 1 | 1011.88 ± 1.1 | 1023.2 ± 1.1 | 1033.91 ± 1.2 | 1044.08 ± 1.3
288.15 K | – | 1003.67 ± 1 | 1010.42 ± 1.1 | 1021.21 ± 1.1 | 1031.47 ± 1.2 | 1041.23 ± 1.3
298.15 K | – | 1001.47 ± 1 | 1007.99 ± 1.1 | 1018.44 ± 1.1 | 1028.37 ± 1.2 | 1037.86 ± 1.3
308.15 K | – | 998.36 ± 1 | 1004.75 ± 1.1 | 1014.97 ± 1.1 | 1024.71 ± 1.2 | 1034 ± 1.3
323.15 K | 988.03 ± 1 | 992.31 ± 1 | 998.61 ± 1.1 | 1008.68 ± 1.1 | 1018.27 ± 1.2 | 1027.42 ± 1.3

CC(C)(C)O [2-methylpropan-2-ol]
mass density [kg/m3], [1]
Conditions | 101.3 kPa | 10000 kPa | 25000 kPa | 50000 kPa | 75000 kPa | 100000 kPa
308.15 K | 770.14 ± 1 | – | – | – | – | –
323.15 K | 753.94 ± 1 | 764.58 ± 1 | 778.73 ± 1.1 | 798.2 ± 1.1 | 813.79 ± 1.2 | 827.34 ± 1.3

O [water] + CC(C)(C)O
mass density [kg/m3], [2]
Conditions | 278.15 K | 288.15 K | 298.15 K | 308.15 K | 323.15 K
101.3 kPa, Vibrating tube method | 999.96 ± 1 | – | – | – | 988.03 ± 1
10000 kPa, Constant-volume piezometry | 1004.77 ± 1 | 1003.67 ± 1 | 1001.47 ± 1 | 998.36 ± 1 | 992.31 ± 1
25000 kPa, Constant-volume piezometry | 1011.88 ± 1.1 | 1010.42 ± 1.1 | 1007.99 ± 1.1 | 1004.75 ± 1.1 | 998.61 ± 1.1
50000 kPa, Constant-volume piezometry | 1023.2 ± 1.1 | 1021.21 ± 1.1 | 1018.44 ± 1.1 | 1014.97 ± 1.1 | 1008.68 ± 1.1
75000 kPa, Constant-volume piezometry | 1033.91 ± 1.2 | 1031.47 ± 1.2 | 1028.37 ± 1.2 | 1024.71 ± 1.2 | 1018.27 ± 1.2
100000 kPa, Constant-volume piezometry | 1044.08 ± 1.3 | 1041.23 ± 1.3 | 1037.86 ± 1.3 | 1034 ± 1.3 | 1027.42 ± 1.3
